Experiments:
OCT2 = details: read-out: Ki, competitive inhibition of OCT2; TEA probe substrate; cited from earlier work
hOATP1B3 = target: T1, hOATP1B3 (Homo sapiens, UniProt Q9NPD5); experiment: Uptake of aconitum alkaloids in hOATP1B3-transfected HEK293 cells vs mock; format: in vitro ADME; details: 10 μm, 2 min
T1 sequence (Q9NPD5 1-702): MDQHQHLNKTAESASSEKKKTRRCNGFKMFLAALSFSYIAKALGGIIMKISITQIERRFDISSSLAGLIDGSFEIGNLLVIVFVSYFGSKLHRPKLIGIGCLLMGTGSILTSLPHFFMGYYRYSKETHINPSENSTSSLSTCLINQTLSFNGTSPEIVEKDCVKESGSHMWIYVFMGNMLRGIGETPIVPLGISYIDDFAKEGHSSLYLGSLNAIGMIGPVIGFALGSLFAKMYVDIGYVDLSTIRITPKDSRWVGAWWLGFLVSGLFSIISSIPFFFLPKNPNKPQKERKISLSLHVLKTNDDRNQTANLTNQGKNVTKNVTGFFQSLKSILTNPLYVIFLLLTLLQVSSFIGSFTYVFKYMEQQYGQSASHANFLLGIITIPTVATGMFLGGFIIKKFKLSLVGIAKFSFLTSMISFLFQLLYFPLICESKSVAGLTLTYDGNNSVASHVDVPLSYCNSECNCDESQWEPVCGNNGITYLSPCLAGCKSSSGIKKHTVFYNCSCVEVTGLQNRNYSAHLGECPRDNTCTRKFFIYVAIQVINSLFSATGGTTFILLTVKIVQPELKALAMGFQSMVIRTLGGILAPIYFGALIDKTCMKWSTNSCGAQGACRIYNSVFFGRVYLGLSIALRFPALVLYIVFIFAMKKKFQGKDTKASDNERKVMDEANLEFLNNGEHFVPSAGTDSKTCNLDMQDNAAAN

[1] = format: in vivo, Sprague-Dawley (SD) rats; details: aconitine 0.5 mg kg^−1 oral; pretreatment 15 min before; n = 6
hOCT1 = target: T2, hOCT1 (Homo sapiens, UniProt O15245); experiment: Uptake of aconitum alkaloids in hOCT1-transfected cells vs mock; format: in vitro ADME; details: 10 μm, 5 min
T2 sequence (O15245 1-554): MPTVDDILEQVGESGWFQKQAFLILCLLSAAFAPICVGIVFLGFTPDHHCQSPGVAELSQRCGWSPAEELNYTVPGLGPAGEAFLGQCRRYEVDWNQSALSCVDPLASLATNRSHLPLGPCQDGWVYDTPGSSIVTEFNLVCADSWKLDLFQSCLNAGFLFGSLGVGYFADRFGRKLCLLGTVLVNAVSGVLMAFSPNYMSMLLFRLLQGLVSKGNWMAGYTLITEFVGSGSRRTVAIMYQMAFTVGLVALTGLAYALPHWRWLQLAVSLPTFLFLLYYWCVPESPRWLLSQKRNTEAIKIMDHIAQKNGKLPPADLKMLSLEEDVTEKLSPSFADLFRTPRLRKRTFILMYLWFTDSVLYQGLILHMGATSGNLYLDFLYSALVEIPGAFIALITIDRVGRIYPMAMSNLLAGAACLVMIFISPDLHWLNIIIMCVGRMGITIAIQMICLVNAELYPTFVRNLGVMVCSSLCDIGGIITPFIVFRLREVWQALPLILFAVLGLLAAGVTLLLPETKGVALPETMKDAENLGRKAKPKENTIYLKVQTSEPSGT

[2] = format: in vivo, Sprague-Dawley (SD) rats; details: aconitine 0.5 mg kg^−1 oral; pretreatment 15 min before; n = 6; remark: listed apart in the source

CCN1C[C@]2(COC)[C@H](O)C[C@H](OC)[C@@]34[C@@H]5C[C@@]6(O)[C@H](OC(=O)c7ccccc7)[C@@H]5[C@@](OC(C)=O)([C@@H]([C@H](OC)[C@H]23)[C@@H]14)[C@@H](O)[C@@H]6OC [aconitine]
Ki (OCT2): 145 µM
uptake in hOATP1B3-transfected cells, adjusted by protein concentration (hOATP1B3; HEK293-hOATP1B3): 344 pmol mg^−1 protein
concentration in hOATP1B3-transfected cells, fold of HEK293 mock cells (hOATP1B3; HEK293-hOATP1B3 vs mock): 1.35 fold
AUC(0–2 h) of aconitine in rat liver [1]: 100.3 ± 8.9 ng/h/g
concentration in HEK293–hOCT1, fold higher than control (hOCT1): roughly 1.9 fold
AUC(0–2 h) of aconitine in rat kidneys [2]: 60.5 ± 6.8 ng/h/g

Source: PMC9064382 (RSC Advances, 2019)
